The subject of assay [1] is Apteronotus leptorhynchus. The assay can be described thus: Neuro-behavioral assay: locomotor activity and induction of anesthesia. It counts as in vivo. The settings on record: 1 μM to 60 μM, exposure times of up to 48 hours; negative control.
For assay [2], the system named is Apteronotus leptorhynchus. The assay can be described thus: Neuro-behavioral assay: effect on EOD frequency. Format: in vivo. The settings on record: 1 μM to 60 μM, exposure times of up to 48 hours; negative control.
For assay [3], the system named is Apteronotus leptorhynchus. The assay can be described thus: Neuro-behavioral assay: chirps (EOD modulations). It counts as in vivo. As to conditions: 1 μM to 60 μM, exposure times of up to 48 hours; negative control.
In the next assay the test system is Mauthner cell. The settings on record: cited from earlier work.

Read-outs that look alike come from different tables or passages of the source.

As for `NC12CC3CC(CC(C3)C1)C2` [Amantadine], the “Effect on locomotor activity” value in assay [1] is listed as “no effects”. For the same molecule, the “Effect on EOD frequency” value in assay [2] is recorded as “no effects”. Moreover, in assay [3], the “Effect on EOD modulations” value is on record as “no effects”.
Consider `CC=Cc1ccc(O)c(OC)c1` [isoeugenol], for which the “Effect on generation and propagation of action potentials” value with Mauthner cell (10 mg/L and 20 mg/L, exposure for more than 1 hour) was “No effect”; in the assay on Mauthner cell (40 mg/L, after 10-30 min), “slight decrease in the slope of action potentials”; in the assay on Mauthner cell (60 mg/L, exposure for at least 10-30 min), “additional aspects of the action potential were affected”.

The record behind these values is US20240207454A1, “NEURO-BEHAVIORAL ASSAY FOR PHYSIOLOGICAL EVALUATION OF WATER-SOLUBLE ANESTHETICS” (Northeastern University, priority 2022, published 2024).
